Experimental data as given in US20230374035A1, “RAS INHIBITORS” (Revolution Medicines, Inc., priority 2019, published 2023).

target: NRAS Q61K (Homo sapiens, UniProt P01111+P62937, Q61K); assay: Disruption of BRAF RBD interaction with Ras (FRET / MOA assay); format: biochemical; details: read-out: NRAS Q61K FRET data IC50
Method: Compound is present in plate wells as a 10-point 3-fold dilution series starting at a final concentration of 30 μM. […] Compounds that facilitate disruption of a Ras:RAF complex are identified as those eliciting a decrease in the TR-FRET ratio relative to DMSO control wells.
Note—The following protocol describes a procedure for monitoring disruption of K-Ras G12C (GMP-PNP) binding to BRAF^RBD by a compound of the invention. This protocol may also be executed substituting other Ras proteins or nucleotides.
The purpose of this biochemical assay was to measure the ability of test compounds to facilitate ternary complex formation between a nucleotide-loaded K-Ras isoform and Cyclophilin A; the resulting ternary complex disrupts binding to a BRAF^RBD construct, inhibiting K-Ras signaling through a RAF effector. Data is reported as IC50 values.
Compound was present in plate wells as a 10-point 3-fold dilution series starting at a final concentration of 30 μM. […] Compounds that facilitate disruption of a K-Ras:RAF complex were identified as those eliciting a decrease in the TR-FRET ratio relative to DMSO control wells.

Sequence of NRAS Q61K (P01111 whole entry Q61K): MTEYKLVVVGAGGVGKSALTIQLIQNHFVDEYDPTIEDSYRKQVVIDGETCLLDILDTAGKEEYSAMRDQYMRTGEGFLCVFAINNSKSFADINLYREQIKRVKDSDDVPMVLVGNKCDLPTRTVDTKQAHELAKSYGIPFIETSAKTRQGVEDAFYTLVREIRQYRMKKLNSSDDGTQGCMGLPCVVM
Sequence of NRAS Q61K (P62937 whole entry): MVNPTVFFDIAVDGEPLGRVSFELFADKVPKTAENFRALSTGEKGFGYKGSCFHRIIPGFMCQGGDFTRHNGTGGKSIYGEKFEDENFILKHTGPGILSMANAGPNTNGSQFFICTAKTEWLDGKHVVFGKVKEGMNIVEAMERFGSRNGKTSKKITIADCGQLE

Compound | IC50 [nM]
CO[C@@H](C)c1ncccc1-c1c2c3cc(ccc3n1CC(F)F)-c1csc(n1)C[C@H](NC(=O)[C@H](C(C)C)N(C)C(=O)N1CC(N(C)C)C1)C(=O)N1CCC[C@H](N1)C(=O)OCC(C)(C)C2 (atropisomer, axis not shown) [Compound A316] | 10 to 100
CCn1c(-c2cccnc2[C@H](C)OC)c2c3cc(ccc31)-c1csc(n1)C[C@H](NC(=O)[C@H](C(C)C)N(C)C(=O)N1CC(C(=O)O)C1)C(=O)N1CCC[C@H](N1)C(=O)OCC(C)(C)C2 (atropisomer, axis not shown) [Compound A344] | 10 to 100
CCn1c(-c2cccnc2[C@H](C)OC)c2c3cc(ccc31)-c1csc(n1)C[C@H](NC(=O)[C@H](C(C)C)N(C)C(=O)N1C[C@@H]3OCCN(C)[C@@H]3C1)C(=O)N1CCC[C@H](N1)C(=O)OCC(C)(C)C2 (atropisomer, axis not shown) [Compound A444] | 10 to 100
CCn1c(-c2cccnc2[C@H](C)OC)c2c3cc(ccc31)-c1csc(n1)C[C@H](NC(=O)[C@H](C(C)C)N(C)C(=O)N1CCCC[C@H](N(C)C)C1)C(=O)N1CCC[C@H](N1)C(=O)OCC(C)(C)C2 (atropisomer, axis not shown) [Compound A491] | 10 to 100
CCn1c(-c2cccnc2[C@H](C)OC)c2c3cc(ccc31)-c1csc(n1)C[C@H](NC(=O)[C@H](C(C)C)N(C)C(=O)N1CC3(CC(N(C)C4COC4)C3)C1)C(=O)N1CCC[C@H](N1)C(=O)OCC(C)(C)C2 (atropisomer, axis not shown) [Compound A511] | 10 to 100
CCn1c(-c2cccnc2[C@H](C)OC)c2c3cc(ccc31)-c1csc(n1)C[C@H](NC(=O)[C@H](C(C)C)N(C)C(=O)N1CC3(CC(NCCOC)C3)C1)C(=O)N1CCC[C@H](N1)C(=O)OCC(C)(C)C2 (atropisomer, axis not shown) [Compound A512] | 10 to 100
CCn1c(-c2cccnc2[C@H](C)OC)c2c3cc(ccc31)-c1csc(n1)C[C@H](NC(=O)[C@H](C(C)C)N(C)C(=O)N1CC([C@H](C)N(C)C)C1)C(=O)N1CCC[C@H](N1)C(=O)OCC(C)(C)C2 (atropisomer, axis not shown) [Compound A538] | 10 to 100
CCn1c(-c2cccnc2[C@H](C)OC)c2c3cc(ccc31)-c1csc(n1)C[C@H](NC(=O)[C@H](C(C)C)N(C)C(=O)N(C)CCc1ccncc1)C(=O)N1CCC[C@H](N1)C(=O)OCC(C)(C)C2 (atropisomer, axis not shown) [Compound A557] | 10 to 100
CCn1c(-c2cccnc2[C@H](C)OC)c2c3cc(ccc31)-c1csc(n1)C[C@H](NC(=O)[C@H](C(C)C)N(C)C(=O)N1CCC[C@H](N(C)C)C1)C(=O)N1CCC[C@H](N1)C(=O)OCC(C)(C)C2 (atropisomer, axis not shown) [Compound A569] | 10 to 100
CCn1c(-c2cccnc2[C@H](C)OC)c2c3cc(ccc31)-c1csc(n1)C[C@H](NC(=O)[C@H](C(C)C)N(C)C(=O)N1CCO[C@H](c3ccccc3)C1)C(=O)N1CCC[C@H](N1)C(=O)OCC(C)(C)C2 (atropisomer, axis not shown) [Compound A582] | 10 to 100

Continued, values first:

IC50 [nM] | Compound
10 to 100 | CCn1c(-c2cccnc2[C@H](C)OC)c2c3cc(ccc31)-c1csc(n1)C[C@H](NC(=O)[C@H](C(C)C)N(C)C(=O)N(C)C1COC1)C(=O)N1CCC[C@H](N1)C(=O)OCC(C)(C)C2 (atropisomer, axis not shown) [Compound A334]
10 to 100 | CCn1c(-c2cccnc2[C@H](C)OC)c2c3cc(ccc31)-c1csc(n1)C[C@H](NC(=O)[C@H](C(C)C)N(C)C(=O)N1CC(S(C)(=O)=O)C1)C(=O)N1CCC[C@H](N1)C(=O)OCC(C)(C)C2 (atropisomer, axis not shown) [Compound A383]
10 to 100 | CCn1c(-c2cccnc2[C@H](C)OC)c2c3cc(ccc31)-c1csc(n1)C[C@H](NC(=O)[C@H](C(C)C)N(C)C(=O)N1CC(COC)C1)C(=O)N1CCC[C@H](N1)C(=O)OCC(C)(C)C2 (atropisomer, axis not shown) [Compound A387]
10 to 100 | CCn1c(-c2cccnc2[C@H](C)OC)c2c3cc(ccc31)-c1csc(n1)C[C@H](NC(=O)[C@H](C(C)C)N(C)C(=O)N1CC[C@H](O)C1)C(=O)N1CCC[C@H](N1)C(=O)OCC(C)(C)C2 (atropisomer, axis not shown) [Compound A401]
10 to 100 | CCn1c(-c2cccnc2[C@H](C)OC)c2c3cc(ccc31)-c1cc(O)cc(c1)C[C@H](NC(=O)[C@H](C(C)C)N(C)C(=O)[C@H]1CCC(=O)O1)C(=O)N1CCC[C@H](N1)C(=O)OCC(C)(C)C2 (atropisomer, axis not shown) [Compound A405]
10 to 100 | CCn1c(-c2cccnc2[C@H](C)OC)c2c3cc(ccc31)-c1csc(n1)C[C@H](NC(=O)[C@H](C(C)C)N(C)C(=O)N1C[C@@H]3OCCN(C)[C@H]3C1)C(=O)N1CCC[C@H](N1)C(=O)OCC(C)(C)C2 (atropisomer, axis not shown) [Compound A445]
10 to 100 | CCn1c(-c2cccnc2[C@H](C)OC)c2c3cc(ccc31)-c1csc(n1)C[C@H](NC(=O)[C@H](C(C)C)N(C)C(=O)N1CC3(CC(N(C)C(C)C)C3)C1)C(=O)N1CCC[C@H](N1)C(=O)OCC(C)(C)C2 (atropisomer, axis not shown) [Compound A485]
10 to 100 | CCn1c(-c2cccnc2[C@H](C)OC)c2c3cc(ccc31)-c1csc(n1)C[C@H](NC(=O)[C@H](C(C)C)N(C)C(=O)N1CCC[C@H](N(C)C)CC1)C(=O)N1CCC[C@H](N1)C(=O)OCC(C)(C)C2 (atropisomer, axis not shown) [Compound A493]
10 to 100 | CCn1c(-c2cccnc2[C@H](C)OC)c2c3cc(ccc31)-c1csc(n1)C[C@H](NC(=O)[C@H](C(C)C)N(C)C(=O)N1CCC13CCS(=O)(=O)CC3)C(=O)N1CCC[C@H](N1)C(=O)OCC(C)(C)C2 (atropisomer, axis not shown) [Compound A530]
10 to 100 | CCn1c(-c2cccnc2[C@H](C)OC)c2c3cc(ccc31)-c1csc(n1)C[C@H](NC(=O)[C@H](C(C)C)N(C)C(=O)N1CC([C@H](C)COC)C1)C(=O)N1CCC[C@H](N1)C(=O)OCC(C)(C)C2 (atropisomer, axis not shown) [Compound A533]
10 to 100 | CCn1c(-c2cccnc2[C@H](C)OC)c2c3cc(ccc31)-c1csc(n1)C[C@H](NC(=O)[C@H](C(C)C)N(C)C(=O)N1CCN3C(=O)CN(C)C[C@H]3C1)C(=O)N1CCC[C@H](N1)C(=O)OCC(C)(C)C2 (atropisomer, axis not shown) [Compound A537]
10 to 100 | CCn1c(-c2cccnc2[C@H](C)OC)c2c3cc(ccc31)-c1csc(n1)C[C@H](NC(=O)[C@H](C(C)C)N(C)C(=O)N1CC(NS(C)(=O)=O)C1)C(=O)N1CCC[C@H](N1)C(=O)OCC(C)(C)C2 (atropisomer, axis not shown) [Compound A552]
10 to 100 | CCn1c(-c2cccnc2[C@H](C)OC)c2c3cc(ccc31)-c1csc(n1)C[C@H](NC(=O)[C@H](C(C)C)N(C)C(=O)N1CC(CN(C)C)C1)C(=O)N1CCC[C@H](N1)C(=O)OCC(C)(C)C2 (atropisomer, axis not shown) [Compound A576]
10 to 100 | CCn1c(-c2cccnc2[C@H](C)OC)c2c3cc(ccc31)-c1csc(n1)C[C@H](NC(=O)[C@H](C(C)C)N(C)C(=O)N1C[C@H](N)[C@@H](O)C1)C(=O)N1CCC[C@H](N1)C(=O)OCC(C)(C)C2 (atropisomer, axis not shown) [Compound A581]
